Columns and labels:
Test in all cases: relative viability (nuclei count vs DMSO), 5 days (fraction); higher = more cells survive
[1] = compound: C1CC(C1)(C(=O)O)C(=O)O.[NH2-].[NH2-].[Pt+2] [Carboplatin] + CC(=O)c1c(C)c2cnc(Nc3ccc(N4CCNCC4)cn3)nc2n(C2CCCC2)c1=O [Palbociclib] (partner 0.5 µM)
Summary of the method: (§1)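 The day after seeding in 1536-well plates, lung cancer cell lines were treated by pin tool with a single drug, or with a fixed anchor-drug dose together with five library-drug doses (not always all listed) in √10 steps. After 5 days, a combined fix-and-stain solution (final 0.05% Triton X-100, 1% formaldehyde, 1 ug/ml Hoechst) was added. Nuclei counted on 4× images gave relative viability as treated counts over vehicle counts, reported as the median of duplicate plates.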

GSK126 + Alpelisib = compound: CC[C@H](C)N1C=C(C2=C(C=C(C=C21)C3=CN=C(C=C3)N4CCNCC4)C(=O)NCC5=C(C=C(NC5=O)C)C)C [GSK126] + Cc1nc(NC(=O)N2CCC[C@H]2C(N)=O)sc1-c1ccnc(C(C)(C)C(F)(F)F)c1 [Alpelisib] (partner 2 µM)
Summary of the method: as §1

MLN4924 + Luminespib = compound: NS(=O)(=O)OC[C@@H]1C[C@@H](n2ccc3c(N[C@H]4CCc5ccccc54)ncnc32)C[C@@H]1O [MLN4924] + CCNC(=O)c1noc(-c2cc(C(C)C)c(O)cc2O)c1-c1ccc(CN2CCOCC2)cc1 [Luminespib] (partner 0.01 µM)
Summary of the method: as §1

GSK126 + Trametinib = compound: CC[C@H](C)N1C=C(C2=C(C=C(C=C21)C3=CN=C(C=C3)N4CCNCC4)C(=O)NCC5=C(C=C(NC5=O)C)C)C [GSK126] + CC(=O)Nc1cccc(-n2c(=O)n(C3CC3)c(=O)c3c(Nc4ccc(I)cc4F)n(C)c(=O)c(C)c32)c1 [Trametinib] (partner 0.02 µM)
Summary of the method: as §1

Cell Line	relative viability ([1]; first compound 0.08 µM)	relative viability ([1]; first compound 0.253 µM)	relative viability ([1]; first compound 0.8 µM)	relative viability ([1]; first compound 2.53 µM)	relative viability ([1]; first compound 8 µM)	relative viability (GSK126 + Alpelisib; first compound 0.08 µM)	relative viability (GSK126 + Alpelisib; first compound 0.253 µM)	relative viability (GSK126 + Alpelisib; first compound 0.8 µM)	relative viability (GSK126 + Alpelisib; first compound 2.53 µM)	relative viability (GSK126 + Alpelisib; first compound 8 µM)	relative viability (MLN4924 + Luminespib; first compound 0.04 µM)	relative viability (MLN4924 + Luminespib; first compound 0.1265 µM)	relative viability (MLN4924 + Luminespib; first compound 0.4 µM)	relative viability (MLN4924 + Luminespib; first compound 1.265 µM)	relative viability (MLN4924 + Luminespib; first compound 4 µM)	relative viability (GSK126 + Trametinib; first compound 0.08 µM)	relative viability (GSK126 + Trametinib; first compound 0.253 µM)	relative viability (GSK126 + Trametinib; first compound 0.8 µM)	relative viability (GSK126 + Trametinib; first compound 2.53 µM)	relative viability (GSK126 + Trametinib; first compound 8 µM)
LU99A	0.468	0.392	0.39	0.424	0.314	0.554	0.512	0.52	0.572	0.594	0.248	0.177	0.203	0.194	0.206	0.631	0.519	0.547	0.552	0.546
NCI-H1299	–	–	–	–	–	1.12	1	1.01	0.994	1.18	–	–	–	–	–	–	–	–	–	–
NCI-H1355	0.442	0.446	0.415	0.402	0.395	0.935	0.836	0.762	0.876	0.901	0.636	0.684	0.775	0.366	0.208	0.435	0.412	0.4	0.421	0.468
HCC-15	0.751	0.721	0.702	0.615	0.575	0.915	0.88	0.816	0.858	0.759	0.168	0.171	0.161	0.125	0.0876	0.425	0.409	0.386	0.382	0.359
LXF-289	0.629	0.59	0.635	0.563	0.583	1.1	1.05	1.02	1.01	1.02	0.61	0.425	0.386	0.153	0.144	0.66	0.665	0.7	0.611	0.693
201T	0.374	0.356	0.37	0.336	0.362	0.999	1.07	1.02	1.05	1.1	1.15	0.916	0.887	0.384	0.29	0.698	0.693	0.726	0.746	0.726
HOP-62	0.441	0.431	0.462	0.409	0.383	0.998	1.14	0.974	0.727	0.917	0.811	0.579	0.264	0.126	0.12	0.406	0.411	0.357	0.383	0.375
NCI-H1703	–	–	–	–	–	0.364	0.343	0.36	0.417	0.482	–	–	–	–	–	–	–	–	–	–
NCI-H1975	0.572	0.625	0.56	0.601	0.518	0.741	0.649	0.607	0.643	0.616	0.322	0.556	0.36	0.382	0.252	0.377	0.31	0.362	0.369	0.352
NCI-H2023	0.433	0.384	0.318	0.326	0.121	0.635	0.641	0.588	0.677	0.571	0.651	0.539	0.179	0.0673	0.0714	0.718	0.6	0.646	0.533	0.603
EBC-1	–	–	–	–	–	1.03	0.792	0.783	0.729	0.762	–	–	–	–	–	–	–	–	–	–
COR-L23	0.32	0.303	0.226	0.196	0.123	0.814	0.826	0.792	0.755	0.647	0.67	0.569	0.42	0.174	0.139	0.837	0.563	0.499	0.557	0.737
NCI-H1793	0.364	0.365	0.31	0.325	0.365	0.968	0.783	0.548	0.511	0.766	0.162	0.125	0.182	0.297	0.148	0.432	0.423	0.457	0.384	0.338
A549	–	–	–	–	–	0.917	0.75	0.749	0.826	0.796	–	–	–	–	–	–	–	–	–	–
CAL-12T	0.402	0.514	0.506	0.483	0.406	1.31	1.3	1.08	1.22	1.39	0.488	0.56	0.262	0.192	0.307	0.407	0.366	0.311	0.382	0.348
NCI-H1993	0.596	0.781	0.634	0.627	0.534	0.632	0.72	0.773	0.748	0.661	0.482	0.458	0.441	0.406	0.47	0.517	0.525	0.448	0.54	0.467
ChaGo-K-1	0.913	0.937	0.837	0.749	0.535	–	–	–	–	–	0.469	0.399	0.258	0.256	0.177	0.902	0.986	0.888	0.947	0.983
SW 900	0.548	0.622	0.572	0.393	0.505	–	–	–	–	–	0.148	0.183	0.154	0.152	0.178	0.801	0.507	0.86	0.901	0.615
NCI-H2342	0.514	0.483	0.482	0.531	0.526	–	–	–	–	–	0.773	0.757	0.682	0.723	0.464	0.786	0.739	0.815	0.869	0.984
NCI-H441	0.282	0.226	0.212	0.211	0.231	0.756	0.717	0.76	0.566	0.753	0.36	0.387	0.276	0.208	0.245	0.538	0.471	0.571	0.483	0.343

Cell Line	relative viability ([1]; first compound 0.08 µM)	relative viability ([1]; first compound 0.253 µM)	relative viability ([1]; first compound 0.8 µM)	relative viability ([1]; first compound 2.53 µM)	relative viability ([1]; first compound 8 µM)	relative viability (GSK126 + Alpelisib; first compound 0.08 µM)	relative viability (GSK126 + Alpelisib; first compound 0.253 µM)	relative viability (GSK126 + Alpelisib; first compound 0.8 µM)	relative viability (GSK126 + Alpelisib; first compound 2.53 µM)	relative viability (GSK126 + Alpelisib; first compound 8 µM)	relative viability (MLN4924 + Luminespib; first compound 0.04 µM)	relative viability (MLN4924 + Luminespib; first compound 0.1265 µM)	relative viability (MLN4924 + Luminespib; first compound 0.4 µM)	relative viability (MLN4924 + Luminespib; first compound 1.265 µM)	relative viability (MLN4924 + Luminespib; first compound 4 µM)	relative viability (GSK126 + Trametinib; first compound 0.08 µM)	relative viability (GSK126 + Trametinib; first compound 0.253 µM)	relative viability (GSK126 + Trametinib; first compound 0.8 µM)	relative viability (GSK126 + Trametinib; first compound 2.53 µM)	relative viability (GSK126 + Trametinib; first compound 8 µM)
NCI-H3122	0.17	0.211	0.17	0.183	0.189	0.827	0.854	0.767	0.768	0.829	0.078	0.063	0.0724	0.0583	0.0491	0.198	0.186	0.216	0.22	0.245
HCC-78	0.446	0.495	0.491	0.464	0.433	0.413	0.304	0.287	0.301	0.372	–	–	–	–	–	0.585	0.792	0.653	0.696	0.592
HCC-827	0.479	0.38	0.499	0.44	0.469	1.06	1	1.03	0.997	0.982	0.68	0.588	0.548	0.159	0.163	0.478	0.496	0.54	0.635	0.531
Calu-6	–	–	–	–	–	1.04	0.983	1	1.01	1.07	–	–	–	–	–	–	–	–	–	–
NCI-H2009	0.203	0.202	0.182	0.207	0.183	1.26	1.16	1.17	1.13	1.14	0.924	0.553	0.292	0.18	0.139	0.332	0.233	0.286	0.348	0.321
NCI-H322M	0.496	0.476	0.472	0.45	0.507	0.819	0.836	0.817	0.78	0.737	1.25	1.11	0.989	0.488	0.311	0.499	0.478	0.482	0.548	0.552
NCI-H23	0.453	0.513	0.513	0.461	0.419	0.74	0.628	0.565	0.779	0.76	0.231	0.175	0.228	0.208	0.214	0.434	0.378	0.407	0.551	0.391
NCI-H1648	0.239	0.291	0.264	0.302	0.3	–	–	–	–	–	–	–	–	–	–	0.544	0.959	0.409	0.522	0.445
NCI-H358	0.141	0.148	0.144	0.149	0.183	1.08	1.07	0.857	0.935	0.904	0.338	0.422	0.214	0.105	0.111	0.15	0.141	0.158	0.12	0.138
NCI-H1944	0.335	0.359	0.332	0.332	0.272	0.92	0.858	0.839	0.843	0.947	0.783	0.482	0.578	0.171	0.168	0.415	0.373	0.435	0.443	0.413
NCI-H1755	0.477	0.501	0.515	0.441	0.461	0.927	0.974	0.951	0.866	0.883	0.441	0.443	0.238	0.221	0.231	0.771	0.736	0.777	0.826	0.793
ABC-1	0.976	0.805	0.886	0.651	0.504	1.19	1.31	1.02	1.11	1.01	1.14	0.548	0.306	0.184	0.24	–	–	–	–	–
NCI-H1563	–	–	–	–	–	1.02	0.988	1.02	0.807	0.828	0.556	0.539	0.53	0.435	0.407	–	–	–	–	–
HCC-366	0.484	0.401	0.339	0.233	0.152	0.452	0.342	0.381	0.546	0.409	–	–	–	–	–	0.391	0.357	0.343	0.309	0.337
NCI-H1650	0.321	0.341	0.359	0.349	0.251	–	–	–	–	–	0.225	0.217	0.243	0.224	0.203	0.631	0.656	0.428	0.578	0.654
NCI-H596	–	–	–	–	–	0.681	0.445	0.397	0.51	0.556	0.942	0.933	–	0.768	0.767	0.803	0.687	0.697	0.862	0.733
NCI-H522	0.897	1.35	1	0.965	0.825	–	–	–	–	–	1.08	0.709	0.851	0.433	0.467	0.773	0.716	0.647	0.654	0.829
IA-LM	–	–	–	–	–	0.893	0.927	0.784	0.724	0.664	–	–	–	–	–	–	–	–	–	–
NCI-H1623	–	–	–	–	–	–	–	–	–	–	0.523	0.477	0.454	0.282	0.293	–	–	–	–	–

— the supplement of paper PMC10307832
